Earlier results, collected in US6265392A, “Low oxygen content compositions of 1α, 25-dihydroxycholeclciferol” (Abbott Laboratories, priority 2000, dated 2001).

Assays:
[1] = free molecules and other reactive forms of oxygen; in solution
[2] = system: intestinal absorption of calcium and phosphorous; conditions: in vivo
[3] = system: renal osteodystrophy, hypoparathyroidism, osteomalacia, osteoporosis, hepatic osteodystrophy, vitamin D-resistant rickets, vitamin D-dependent rickets …; conditions: children and adults; literature

**Q.** Which results are given for C=C1/C(=C\C=C2/CCC[C@]3(C)[C@@H]([C@H](C)CCCC(C)(C)O)CC[C@@H]23)C[C@@H](O)C[C@@H]1O [1α,25-dihydroxycholecalciferol]?
**A.** Sensitivity to oxygen [1]: sensitive to the presence of oxygen; Solubility in organic solvents (organic solvents): soluble in organic solvents; Solubility in water (water): practically insoluble in water; Effect on intestinal absorption of calcium and phosphorous [2]: stimulates intestinal absorption of calcium and phosphorous; Treatment outcome [3]: successful treatment
